Literature values as cited in PMC11979273, “A phase I study to evaluate the safety, tolerability, and pharmacokinetics of HEC113995PA·H2O, a novel dual-acting serotonergic antidepressant, in healthy subjects” (Frontiers in Pharmacology, 2025).

Conditions: cited from earlier work

N#Cc1ccc2[nH]cc(CCCCN3CCN(c4ccc5oc(C(N)=O)cc5c4)CC3)c2c1 [Vilazodone]
AUC0-∞ (20 mg dose): 502 ng·h/mL | Cmax (20 mg dose): 28.5 ng/mL | Tmax (peak) (in vivo): 5 h | t1/2 (in vivo): 24.1 h
